PubChem BioAssay AID2060488 (Molecular Pharmacology Branch, DTP, NCI, 2025)

Tested on: 966289-007-R4-J1-PDC complex spheroid viability
Assay: Anticancer human tumor 966289-007-R4-J1-PDC patient-derived pancreatic adenocarcinoma cell line growth inhibition [GQUAD]
Details: for IC50: curve of first compound; for viability, T/C: stronger effect = lower value
Procedure, shortened: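 Multi-cell-type spheroids of tumor cells with HUVEC and mesenchymal stem cells, treated with drug combinations. Concentrations descend in half-log steps from near clinical Cmax, or from 10 microM where Cmax is unknown; viability read-out.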

[1] = second compound 0.0316 µM, first compound 0.0316 µM
[2] = second compound 0.0316 µM, first compound 0.1 µM
[3] = second compound 0.0316 µM, first compound 0.316 µM
[4] = second compound 0.0316 µM, first compound 1 µM
[5] = second compound 0.0316 µM, first compound 3.16 µM
[6] = second compound 0.0316 µM, first compound 10 µM
[7] = second compound 0.1 µM, first compound 0.0316 µM
[8] = second compound 0.1 µM, first compound 0.1 µM
[9] = second compound 0.1 µM, first compound 0.316 µM
[10] = second compound 0.1 µM, first compound 1 µM
[11] = second compound 0.1 µM, first compound 3.16 µM
[12] = second compound 0.1 µM, first compound 10 µM
[13] = second compound 0.316 µM, first compound 0.0316 µM
[14] = second compound 0.316 µM, first compound 0.1 µM
[15] = second compound 0.316 µM, first compound 0.316 µM
[16] = second compound 0.316 µM, first compound 1 µM
[17] = second compound 0.316 µM, first compound 3.16 µM
[18] = second compound 0.316 µM, first compound 10 µM
[19] = second compound 1 µM, first compound 0.0316 µM
[20] = second compound 1 µM, first compound 0.1 µM
[21] = second compound 1 µM, first compound 0.316 µM
[22] = second compound 1 µM, first compound 1 µM
[23] = second compound 1 µM, first compound 3.16 µM
[24] = second compound 1 µM, first compound 10 µM
[25] = second compound 3.16 µM, first compound 0.0316 µM
[26] = second compound 3.16 µM, first compound 0.1 µM
[27] = second compound 3.16 µM, first compound 0.316 µM
[28] = second compound 3.16 µM, first compound 1 µM
[29] = second compound 3.16 µM, first compound 3.16 µM
[30] = second compound 3.16 µM, first compound 10 µM
[31] = second compound 10 µM, first compound 0.0316 µM
[32] = second compound 10 µM, first compound 0.1 µM
[33] = second compound 10 µM, first compound 0.316 µM
[34] = second compound 10 µM, first compound 1 µM
[35] = second compound 10 µM, first compound 3.16 µM
[36] = second compound 10 µM, first compound 10 µM
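Note: spheroids exposed to the agents for seven days before readout.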
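Throughout, for viability, T/C: percent viability relative to DMSO vehicle control wells taken as 100%.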

## CC1COCCN1c1cc(C2(S(C)(=N)=O)CC2)nc(-c2ccnc3[nH]ccc23)n1 (centres undefined) + Cc1cnc(CNC(=O)c2c(=O)c3ccc(N4CCCN(C)CC4)nc3n3c2sc2ccccc23)cn1
Second compound 0.0316 µM
  IC50: 2700 nM
Second compound 0.1 µM
  IC50: < 31.6 nM
Second compound 0.316 µM
  IC50: < 31.6 nM
Second compound 1 µM
  IC50: < 31.6 nM
Second compound 3.16 µM
  IC50: < 31.6 nM
Second compound 10 µM
  IC50: < 31.6 nM
[1]
  viability, T/C: 119%
[2]
  viability, T/C: 108%
[3]
  viability, T/C: 107%
[4]
  viability, T/C: 44.5%
[5]
  viability, T/C: 68.7%
[6]
  viability, T/C: 3.76%
[7]
  viability, T/C: 42.7%
[8]
  viability, T/C: 34.2%
[9]
  viability, T/C: 20.3%
[10]
  viability, T/C: 11.8%
[11]
  viability, T/C: 15.3%
[12]
  viability, T/C: 4.26%
[13]
  viability, T/C: 16.7%
[14]
  viability, T/C: 13.1%
[15]
  viability, T/C: 12.2%
[16]
  viability, T/C: 8.4%
[17]
  viability, T/C: 11.7%
[18]
  viability, T/C: 3.59%
[19]
  viability, T/C: 7.28%
[20]
  viability, T/C: 8.94%
[21]
  viability, T/C: 8.19%
[22]
  viability, T/C: 6.87%
[23]
  viability, T/C: 8.21%
[24]
  viability, T/C: 2.84%
[25]
  viability, T/C: 5.74%
[26]
  viability, T/C: 6.34%
[27]
  viability, T/C: 6.62%
[28]
  viability, T/C: 5.33%
[29]
  viability, T/C: 6.14%
[30]
  viability, T/C: 2.86%
[31]
  viability, T/C: 0.15%
[32]
  viability, T/C: 0.14%
[33]
  viability, T/C: 0.19%
[34]
  viability, T/C: 0.18%
[35]
  viability, T/C: 0.19%
[36]
  viability, T/C: 0.16%

## COc1ccc([C@@H](O)c2cc(-c3ncnc4cc(N5CCOCC5)ccc34)c(F)cc2Cl)nn1 + Cc1cnc(CNC(=O)c2c(=O)c3ccc(N4CCCN(C)CC4)nc3n3c2sc2ccccc23)cn1
Second compound 0.0316 µM
  IC50: 826 nM
Second compound 0.1 µM
  IC50: < 31.6 nM
Second compound 0.316 µM
  IC50: < 31.6 nM
Second compound 1 µM
  IC50: < 31.6 nM
Second compound 3.16 µM
  IC50: < 31.6 nM
Second compound 10 µM
  IC50: < 31.6 nM
[1]
  viability, T/C: 119%
[2]
  viability, T/C: 109%
[3]
  viability, T/C: 107%
[4]
  viability, T/C: 38.6%
[5]
  viability, T/C: 36%
[6]
  viability, T/C: 26%
[7]
  viability, T/C: 47.7%
[8]
  viability, T/C: 37.2%
[9]
  viability, T/C: 21.7%
[10]
  viability, T/C: 11.2%
[11]
  viability, T/C: 12.2%
[12]
  viability, T/C: 13.2%
[13]
  viability, T/C: 14.1%
[14]
  viability, T/C: 15%
[15]
  viability, T/C: 10.7%
[16]
  viability, T/C: 9.67%
[17]
  viability, T/C: 12.2%
[18]
  viability, T/C: 10.4%
[19]
  viability, T/C: 7.16%
[20]
  viability, T/C: 7.76%
[21]
  viability, T/C: 6.22%
[22]
  viability, T/C: 5.28%
[23]
  viability, T/C: 7.22%
[24]
  viability, T/C: 6.81%
[25]
  viability, T/C: 5.73%
[26]
  viability, T/C: 5.42%
[27]
  viability, T/C: 4.82%
[28]
  viability, T/C: 4.3%
[29]
  viability, T/C: 6.69%
[30]
  viability, T/C: 6.78%
[31]
  viability, T/C: 0.11%
[32]
  viability, T/C: 0.13%
[33]
  viability, T/C: 0.3%
[34]
  viability, T/C: 0.15%
[35]
  viability, T/C: 0.42%
[36]
  viability, T/C: 0.15%
